Assays:
T cells = assay: T cell activation detection by flow cytometry in stimulated human whole blood; type: cell-based
Experimental: Human whole blood can be obtained and diluted 1:5 in RPMI media and stimulated with 0, 20, 40, 60, 80, and 100 μg/mL (of blood) of phytohemagglutinin (PHA) for about 20 hours at 37° C. and 5% CO2. In parallel, blood samples can be treated with a buffer (no PHA) as a stimulation control. Following the stimulation period, blood samples can be stained with fluorescently-labeled antibodies to T cell markers, including CD4, CD25, CD69, and CD71. Fluorescently-labeled (FITC, APC, PE, PerCP-Cy5, and APC-Cy7) antibodies can be mixed with 100 μIL of PHA-stimulated blood samples or with unstimulated blood control samples in parallel, and each of the samples were can then be incubated, protected from light, for a minimum of 30 minutes. Following incubation with the labeled antibodies, the samples can be washed with BSA Stain Buffer. In parallel, samples can be separately incubated with isotype control antibodies. Following washing, red blood cells can be lysed with 1 mL of 1× Pharm Lyse™ by incubation with this reagent for 15 minutes. Samples can be centrifuged, and washed again with BSA Stain Buffer. All samples can be fixed and permeabilized with eBiosciences Fix and Perm solutions according to the manufacturer's instructions. FoxP3 can be added to the fixed/permeabilized samples, and the samples can be incubated for a minimum of 30 minutes. Samples can be washed with BSA Stain Buffer, and 1 μL of Violet Live/Dead is added to the samples and incubated, protected from light, for a minimum of 15 minutes. Samples and controls can be run through a FACSAria III flow cytometer. The flow cytometer can be calibrated, and compensation can be performed according to standard requirements and procedures. Cells can be suspended at a density of 1,000,000 cells per mL in a tube, and run through the flow cytometer for analysis. One hundred thousand events can be collected per analysis. T cells can be identified by their forward (FSC) and side (SSC) scatter profiles, and gated accordingly. T cells can further be analyzed according to the T cell marker profiles (Fox3, CD4, CD25, cD69, and CD71).

[1] = system: leukocytes and CD3+ lymphocytes; assay: Detection of leukocyte and lymphocyte activation markers involved in allergic response by flow cytometry; type: cell-based, Human
Experimental: Human whole blood was obtained from a normal control individual and from an individual with a severe allergy to Amoxicillin. The blood was diluted 1:5 in RPMI media, then stimulated with either 50 μM Amoxicillin for 20 minutes to 1 hour at 37° C. and 5% CO2. In parallel, blood samples were treated with a buffer as a stimulation control, or with 50 μg/mL of the potent polymorphonuclear leukocyte (PMN) chemotactic factor fMLP (N-Formylmethionyl-leucyl-phenylalanine).
Following the stimulation period, blood samples were stained with fluorescently-labeled antibodies to leukocyte activation markers CD294, CD203a or lymphocyte activation markers CD71 and CD69 with the use of CD3 to identify CD3+ lymphocytes. Each of the samples were then incubated, protected from light, for a minimum of 30 minutes. Following incubation with the labeled antibodies, the samples were washed with BSA Stain Buffer. In parallel, samples were separately incubated with isotype control antibodies.
Following washing, red blood cells were lysed with 1 mL of 1× Pharm Lyse™ by incubation with this reagent for 15 minutes. Samples were centrifuged, and washed again with BSA Stain Buffer.
Samples and controls were then run through a FACS CANTO flow cytometer. The flow cytometer was calibrated, and compensation was performed according to standard requirements and procedures. Cells were suspended at a density of 1,000,000 cells per mL in a tube, and run through the flow cytometer for analysis. One hundred thousand events were collected per analysis.
Live cells were gating based on their low staining with FVS450. Lymphocytes and leukocytes were identified by their forward (FSC) and side (SSC) scatter profiles, and gated accordingly. CD+ lymphocytes were then further analyzed according to activation markers CD69 and CD71.

[2] = human whole blood diluted 1:5 in RPMI, PHA stimulation about 20 hours at 37° C.
[3] = increasing amounts of PHA, 0 to 100 micrograms over 20 microgram increments
[4] = blood from allergic donor (highly sensitive to Amoxicillin), 50 μM, 20 minutes to 1 hour
[5] = blood from non-allergic donor, 50 μM, 20 minutes to 1 hour
[6] = fMLP-stimulated blood samples, 50 μg/mL

For Phytohemagglutinin [PHA], the “stimulation of normal whole blood CD71, CD69, FoxP3 and CD25+ cells” value (T cells; 20-100 μg/mL PHA) was “stimulated”, the “CD4 expression on the T cells” value (T cells; [2]) was “substantial increase” and the “expression of CD25, CD69, CD71, and FoxP3 on the T cells” value (T cells; [2]) was “significant increase”. For the same compound, the “level of CD69 expression on CD4+ cells” value (T cells; increasing amounts of PHA, 0 to 100 micrograms) was “enhancement”, the “level of CD71 expression on CD4+ cells” value (T cells; [3]) was “enhancement” and the “level of FoxP3 expression on CD4+ cells” value (T cells; [3]) was “enhancement”.
`CC1(C)S[C@@H]2[C@H](NC(=O)[C@H](N)c3ccc(O)cc3)C(=O)N2[C@H]1C(=O)O` [Amoxicillin] was tested, and the “expression of CD69 and CD71 on CD3+ lymphocytes” value [1, 4] was “increased expression”, the “expression of CD294 and CD203a on leukocytes” value [1, 4] was “increased expression” and the “CD71 or CD69 on lymphocytes” value [1, 5] was “did not show an increase”. For the same compound, the “CD294 and CD203a on leukocytes” value [1, 5] was “did not show an increase”.
With `CSCC[C@H](NC=O)C(=O)N[C@@H](CC(C)C)C(=O)N[C@@H](Cc1ccccc1)C(=O)O` [fMLP, N-Formylmethionyl-leucyl-phenylalanine] the “CD294 and CD203a expression on leukocytes” value [1, 6] was “substantial increase” and the “expression of CD71 and CD69 on lymphocytes” value [1, 6] was “significant increase”.

From patent US20180348208A1, “Systems And Methods For Determining The Risk Of Severe Allergic Reaction To Allergen, And The Immunological Protection Afforded By Vaccines” (FlowMetric Life Sciences, priority 2017, published 2018)
